Measured values as given in patent US20240335420A1, “N-ACYLHYDRAZONE COMPOUNDS CAPABLE OF INHIBITING NAV 1.7 AND/OR NAV 1.8, PROCESSES FOR THE PREPARATION THEREOF, COMPOSITIONS, USES, METHODS FOR TREATMENT USING SAME AND KITS” (EUROFARMA LABORATÓRIOS S.A., priority 2021, published 2024).

Legend:
[1] = biological target: human sodium channels Nav 1.7 (Homo sapiens (Human), UniProt Q15858); test: Automated whole-cell voltage-clamp (ScreenPatch 384P), Nav 1.7 sodium current, Protocol 2; assay type: cell-based; settings: Protocol 2 (holding −100 mV, inactivation step −40 mV 8 s, 0.05 Hz); CHO cells expressing human Nav 1.7; read-out: Nav1.7 IC50
human sodium channels Nav 1.7, sequence (Q15858 whole entry): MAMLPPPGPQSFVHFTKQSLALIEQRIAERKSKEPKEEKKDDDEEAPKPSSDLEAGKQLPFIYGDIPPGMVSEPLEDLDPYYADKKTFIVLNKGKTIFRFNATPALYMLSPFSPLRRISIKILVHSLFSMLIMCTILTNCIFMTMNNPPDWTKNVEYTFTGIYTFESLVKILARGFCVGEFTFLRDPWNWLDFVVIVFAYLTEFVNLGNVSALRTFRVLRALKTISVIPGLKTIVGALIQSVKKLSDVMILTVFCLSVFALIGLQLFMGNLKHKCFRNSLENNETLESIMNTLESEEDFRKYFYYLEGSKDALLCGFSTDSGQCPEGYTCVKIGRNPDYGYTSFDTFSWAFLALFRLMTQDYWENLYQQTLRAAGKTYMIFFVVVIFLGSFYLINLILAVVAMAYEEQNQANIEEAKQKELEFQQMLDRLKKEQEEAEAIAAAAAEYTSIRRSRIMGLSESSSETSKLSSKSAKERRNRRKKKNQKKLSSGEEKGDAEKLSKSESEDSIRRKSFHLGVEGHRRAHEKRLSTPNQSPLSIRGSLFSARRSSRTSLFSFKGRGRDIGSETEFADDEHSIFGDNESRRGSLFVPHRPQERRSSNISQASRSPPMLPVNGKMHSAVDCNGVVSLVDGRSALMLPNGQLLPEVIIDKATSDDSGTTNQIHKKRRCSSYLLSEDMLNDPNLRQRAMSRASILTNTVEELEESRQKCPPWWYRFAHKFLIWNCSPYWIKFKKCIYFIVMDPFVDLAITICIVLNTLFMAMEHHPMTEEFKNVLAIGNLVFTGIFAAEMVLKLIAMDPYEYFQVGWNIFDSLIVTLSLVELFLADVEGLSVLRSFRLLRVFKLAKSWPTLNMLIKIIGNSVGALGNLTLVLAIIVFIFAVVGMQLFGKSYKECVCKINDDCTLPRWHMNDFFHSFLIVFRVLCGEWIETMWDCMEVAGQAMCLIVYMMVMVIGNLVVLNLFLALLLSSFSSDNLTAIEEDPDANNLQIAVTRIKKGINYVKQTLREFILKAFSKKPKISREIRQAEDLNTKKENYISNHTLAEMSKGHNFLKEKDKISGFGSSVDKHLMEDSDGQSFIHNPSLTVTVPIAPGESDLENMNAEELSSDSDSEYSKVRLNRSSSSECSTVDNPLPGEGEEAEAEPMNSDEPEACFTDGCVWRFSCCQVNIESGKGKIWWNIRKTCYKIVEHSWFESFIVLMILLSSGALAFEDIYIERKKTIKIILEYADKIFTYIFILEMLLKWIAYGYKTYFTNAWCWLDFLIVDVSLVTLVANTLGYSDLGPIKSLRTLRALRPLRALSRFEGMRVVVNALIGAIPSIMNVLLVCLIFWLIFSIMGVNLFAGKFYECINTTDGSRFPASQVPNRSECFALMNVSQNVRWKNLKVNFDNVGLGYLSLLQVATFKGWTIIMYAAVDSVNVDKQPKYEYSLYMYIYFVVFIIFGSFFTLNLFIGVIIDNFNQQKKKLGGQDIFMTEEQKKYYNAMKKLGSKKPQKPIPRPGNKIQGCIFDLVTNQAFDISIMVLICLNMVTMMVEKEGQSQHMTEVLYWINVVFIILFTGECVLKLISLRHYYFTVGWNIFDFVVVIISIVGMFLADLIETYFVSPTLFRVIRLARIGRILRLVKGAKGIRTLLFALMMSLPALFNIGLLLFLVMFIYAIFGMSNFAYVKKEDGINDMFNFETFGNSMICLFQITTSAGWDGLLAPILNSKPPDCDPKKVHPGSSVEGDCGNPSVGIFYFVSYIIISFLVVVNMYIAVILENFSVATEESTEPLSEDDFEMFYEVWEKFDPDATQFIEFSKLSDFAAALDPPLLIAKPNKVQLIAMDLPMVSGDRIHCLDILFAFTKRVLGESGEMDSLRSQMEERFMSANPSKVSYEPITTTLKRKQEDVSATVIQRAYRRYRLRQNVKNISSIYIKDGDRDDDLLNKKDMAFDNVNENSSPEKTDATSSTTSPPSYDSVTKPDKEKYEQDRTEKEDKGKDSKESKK
Experimental: (§1) Biological assays were performed on Chinese hamster ovary (CHO) cells expressing the human sodium channels Nav 1.8 and Nav 1.7 stably.
(§2) The experimental voltage-clamp protocol using the whole cell configuration was established on the automated ScreenPatch® 384P platform (SP384PE, Nanion Technologies, Livingston, NJ) and recording of the results was performed with a Nanion 384-well Patch Clamp chip (NPC) (Nanion Technologies, Livingston, NJ).
(§3) Compounds of Formula (I), were diluted in eight concentrations in the extracellular solution composed of physiological saline, buffered with HEPES (mM): NaCl, 137; KCl, 4; CaCl2, 3.8; MgCl2, 1; HEPES, 10; Glucose, 10; pH 7.4. The […], 50; CsF, 90; MgCl2, 5; EGTA, 5; HEPES, 10; pH 7.2. The duration of exposure of each compound with the cells expressing Nav 1.7 or Nav 1.8 was at least five minutes and the assays were performed at room temperature.
(§4) The measurements of the sodium currents of Nav 1.8 and Nav 1.7 were obtained using the voltage protocols described below: • Protocol 1: A holding voltage of −90 mV was established followed by a voltage phase of 200 ms to −120 mV, followed by a voltage step of 10 mV for 1 second for Nav 1.8 or 0 mV for Nav 1.7, followed by a step of −100 mV for 20 ms, followed by a step of 20 ms for 10 mV for Nav 1.8 or 0 mV for Nav 1.7 (TP1A) before returning to the holding voltage of −90 mV. • Protocol 2: A holding voltage of −100 mV was established followed by an inactivation voltage step at −40 mV for 8 seconds, followed by a −100 mV step for […], followed by a 20 ms step for 10 mV for Nav 1.8 or 0 mV for Nav 1.7 (TP1A) before returning to the holding voltage of −100 mV.
(§5) Protocols were repeated at a frequency of 0.1 Hz (Protocol 1) or 0.05 Hz (Protocol 2) and current amplitude was quantified over the TP1A phase log. The variation in the peak amplitude of the current was evaluated according to the Formula described below, after exposure of the cells expressing the channels, at each concentration of the different compounds:
(§6) [formula] • where |TP1A, basal, and |TP1A, molecule represent the entry peaks of sodium currents into TP1A prior to exposure to the compound and in the presence of the compound, respectively.
(§7) The decrease in peak current amplitude, after exposure of the cells to the compounds, was used to calculate the percent relative blocking of the channels relative to the positive control according to the Formula below:
(§8) [formula] • where % V and % CP represent the averages of the values of current inhibition with a vehicle (DMSO) and positive controls, respectively. The sodium currents of the positive control were considered as 100%.
(§9) [formula] • where [Test] represents the concentration of the evaluated molecule, IC50 is the concentration of the compound that generates half of the maximum inhibition, N is the Hill's coefficient and % Block′ is the percentage of the sodium channel current (Nav 1.8 and Nav 1.7) inhibited at each concentration of the evaluated molecule. Data were obtained by non-linear least squares regression with XLfit for Excel (Microsoft, Redmond, WA).
(§10) Compounds were tested in at least one assay to obtain the IC50 value.

[2] = biological target: human sodium channels Nav 1.8 (Homo sapiens (Human), UniProt Q9Y5Y9); test: Automated whole-cell voltage-clamp (ScreenPatch 384P), Nav 1.8 sodium current, Protocol 2; assay type: cell-based; settings: Protocol 2 (holding −100 mV, inactivation step −40 mV 8 s, 0.05 Hz); CHO cells expressing human Nav 1.8; read-out: Nav1.8 IC50
human sodium channels Nav 1.8, sequence (Q9Y5Y9 whole entry): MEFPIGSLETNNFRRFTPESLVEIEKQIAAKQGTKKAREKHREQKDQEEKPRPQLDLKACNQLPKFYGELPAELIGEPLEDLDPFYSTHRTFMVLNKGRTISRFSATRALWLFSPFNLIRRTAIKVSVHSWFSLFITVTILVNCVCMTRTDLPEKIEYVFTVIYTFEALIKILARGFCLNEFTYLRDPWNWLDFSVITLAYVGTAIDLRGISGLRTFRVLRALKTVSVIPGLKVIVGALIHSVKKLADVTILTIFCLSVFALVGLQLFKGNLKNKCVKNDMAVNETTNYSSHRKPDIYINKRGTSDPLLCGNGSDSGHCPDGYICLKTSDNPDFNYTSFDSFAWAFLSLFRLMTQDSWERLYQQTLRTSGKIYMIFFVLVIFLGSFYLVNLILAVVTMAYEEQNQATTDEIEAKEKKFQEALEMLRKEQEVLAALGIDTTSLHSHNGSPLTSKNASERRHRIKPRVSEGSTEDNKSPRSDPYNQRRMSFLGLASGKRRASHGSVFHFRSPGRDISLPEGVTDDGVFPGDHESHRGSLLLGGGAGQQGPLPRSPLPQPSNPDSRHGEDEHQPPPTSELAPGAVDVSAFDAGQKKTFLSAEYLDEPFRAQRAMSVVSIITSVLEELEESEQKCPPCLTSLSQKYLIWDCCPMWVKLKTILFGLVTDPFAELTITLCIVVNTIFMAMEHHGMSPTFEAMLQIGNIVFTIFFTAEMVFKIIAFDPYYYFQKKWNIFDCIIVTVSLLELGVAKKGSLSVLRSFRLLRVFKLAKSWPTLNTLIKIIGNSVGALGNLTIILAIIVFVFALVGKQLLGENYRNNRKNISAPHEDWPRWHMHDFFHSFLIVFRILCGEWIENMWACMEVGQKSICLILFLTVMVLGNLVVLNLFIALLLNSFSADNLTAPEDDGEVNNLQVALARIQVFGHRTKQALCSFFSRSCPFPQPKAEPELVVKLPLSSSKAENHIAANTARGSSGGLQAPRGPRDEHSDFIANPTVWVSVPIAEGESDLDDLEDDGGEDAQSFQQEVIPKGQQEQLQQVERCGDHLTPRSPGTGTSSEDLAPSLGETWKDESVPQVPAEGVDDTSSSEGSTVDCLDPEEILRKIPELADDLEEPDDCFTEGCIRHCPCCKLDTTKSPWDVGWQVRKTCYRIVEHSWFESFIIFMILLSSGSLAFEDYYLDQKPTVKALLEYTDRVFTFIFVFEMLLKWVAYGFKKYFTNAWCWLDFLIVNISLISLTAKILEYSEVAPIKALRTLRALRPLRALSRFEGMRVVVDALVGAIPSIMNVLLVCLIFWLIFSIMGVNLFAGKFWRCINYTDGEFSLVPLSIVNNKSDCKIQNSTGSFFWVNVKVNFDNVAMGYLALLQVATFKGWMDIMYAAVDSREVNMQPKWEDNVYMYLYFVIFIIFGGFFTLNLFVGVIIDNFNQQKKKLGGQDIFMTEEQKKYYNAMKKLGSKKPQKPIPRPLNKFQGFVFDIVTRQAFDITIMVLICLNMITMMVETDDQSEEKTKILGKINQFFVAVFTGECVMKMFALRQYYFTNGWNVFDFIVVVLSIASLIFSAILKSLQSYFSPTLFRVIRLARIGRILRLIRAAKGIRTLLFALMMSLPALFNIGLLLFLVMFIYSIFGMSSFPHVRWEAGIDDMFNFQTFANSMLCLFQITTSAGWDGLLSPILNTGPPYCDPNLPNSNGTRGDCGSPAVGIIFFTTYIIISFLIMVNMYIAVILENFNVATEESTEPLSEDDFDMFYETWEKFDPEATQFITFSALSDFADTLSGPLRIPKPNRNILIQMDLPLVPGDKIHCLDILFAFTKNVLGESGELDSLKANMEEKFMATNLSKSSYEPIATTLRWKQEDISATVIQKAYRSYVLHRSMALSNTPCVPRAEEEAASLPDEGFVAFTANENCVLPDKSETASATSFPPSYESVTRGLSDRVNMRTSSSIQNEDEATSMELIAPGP
Experimental: as §1, §2, §3, §4, §5, §6, §7, §8, §9, §10

Compound	IC50 [1]	IC50 [2]
CCCCOc1ccc(-c2cc(C(=O)N/N=C/c3cc(OC)cc(OC)c3)ccn2)cc1 [Compound 38, (E)-2-(4-butoxyphenyl)-N′-(3,5-dimethoxybenzylidene) isonicotinohydrazide]	> 10000 nM	> 1000 nM
COc1cc(/C=N/NC(=O)c2ccnc(-c3ccc(OC4CCCC4)cc3)c2)cc(OC)c1 [Compound 39, (E)-2-(4-(cyclopentyloxy)phenyl)-N′-(3,5-dimethoxybenzylidene) isonicotinohydrazide]	> 10000 nM	> 1000 nM
COc1cc(/C=N/NC(=O)c2cccc(-c3ccc(OC(F)(F)F)cc3)n2)cc(OC)c1 [Compound 40, (E)-N′-(3,5-dimethoxybenzylidene)-6-(4-(trifluoromethoxy)phenyl) picolinohydrazide]	123 nM	140 nM
CCCCOc1ccc(-c2cccc(C(=O)N/N=C/c3cc(OC)cc(OC)c3)n2)cc1 [Compound 41, (E)-6-(4-butoxyphenyl)-N′-(3,5-dimethoxybenzylidene) picolinohydrazide]	1200 nM	> 1000 nM
COc1cc(/C=N/NC(=O)c2ccnc(-c3ccc(OC(C)C)cc3)n2)cc(OC)c1 [Compound 54, (E)-N′-(3,5-dimethoxybenzylidene)-2-(4-isopropoxyphenyl)pyrimidine-4-carbohydrazide]	137 nM	313 nM
COc1cc(/C=N/NC(=O)c2nccc(-c3ccc(Cl)cc3)n2)cc(OC)c1 [Compound 60, (E)-4-(4-chlorophenyl)-N′-(3,5-dimethoxybenzylidene)pyrimidine-2-carbohydrazide]	5150 nM	5040 nM
CCOc1ccc(-c2ccnc(C(=O)N/N=C/c3cc(OC)cc(OC)c3)n2)cc1 [Compound 61, (E)-N′-(3,5-dimethoxybenzylidene)-4-(4-ethoxyphenyl)pyrimidine-2-carbohydrazide]	651 nM	183 nM
COc1cc(/C=N/NC(=O)c2nccc(-c3ccc(OC(C)C)cc3)n2)cc(OC)c1 [Compound 62, (E)-N′-(3,5-dimethoxybenzylidene)-4-(4-isopropoxyphenyl)pyrimidine-2-carbohydrazide]	302 nM	462 nM
COc1cc(/C=N/NC(=O)c2nccc(-c3ccc(OC4CCCC4)cc3)n2)cc(OC)c1 [Compound 63, (E)-4-(4-(cyclopentyloxy)phenyl)-N′-(3,5-dimethoxybenzylidene)pyrimidine-2-carbohydrazide]	306 nM	> 1000 nM
COc1cc(/C=N/NC(=O)c2nccc(-c3ccc(OC(F)(F)F)cc3)n2)cc(OC)c1 [Compound 64, (E)-N′-(3,5-dimethoxybenzylidene)-4-(4-(trifluoromethoxy)phenyl) pyrimidine-2-carbohydrazide]	173 nM	384 nM
COc1ccc(-c2ccnc(C(=O)N/N=C/c3cc(OC)cc(OC)c3)n2)cc1 [Compound 65, (E)-N′-(3,5-dimethoxybenzylidene)-4-(4-methoxyphenyl)pyrimidine-2-carbohydrazide]	6440 nM	> 1000 nM
CCCOc1ccc(-c2ccnc(C(=O)N/N=C/c3cc(OC)cc(OC)c3)n2)cc1 [Compound 66, (E)-N′-(3,5-dimethoxybenzylidene)-4-(4-propoxyphenyl)pyrimidine-2-carbohydrazide]	569 nM	> 1000 nM
CCOc1ccc(-c2cc(F)cc(C(=O)N/N=C/c3cc(OC)cc(OC)c3)n2)cc1 [Compound 68, (E)-N′-(3,5-dimethoxybenzylidene)-6-(4-ethoxyphenyl)-4-fluoropicolinohydrazide]	> 10000 nM	636 nM
CCOc1ccc(-c2cc(C(F)(F)F)cc(C(=O)N/N=C/c3cc(OC)cc(OC)c3)n2)cc1 [Compound 69]	> 10000 nM	> 1000 nM
COc1ccc(-c2ccc(C(=O)N/N=C/c3cc(OC)cc(OC)c3)o2)cc1 [Compound 71, (E)-N′-(3,5-dimethoxybenzylidene)-5-(4-methoxyphenyl) furan-2-carbohydrazide]	> 10000 nM	> 1000 nM
COc1ccc(-c2ccc(C(=O)N/N=C/c3cc(OC)cc(OC)c3)s2)cc1 [Compound 72, (E)-N′-(3,5-dimethoxybenzylidene)-5-(4-methoxyphenyl)thiophene-2-carbohydrazide]	> 10000 nM	> 1000 nM
COc1ccc(-c2ncc(C(=O)N/N=C/c3cc(OC)cc(OC)c3)o2)cc1 [Compound 73, (E)-N′-(3,5-dimethoxybenzylidene)-2-(4-methoxyphenyl) oxazole-5-carbohydrazide]	> 10000 nM	> 1000 nM
COc1ccc(-c2nc(C(=O)N/N=C/c3cc(OC)cc(OC)c3)co2)cc1 [Compound 74, (E)-N′-(3,5-dimethoxybenzylidene)-2-(4-methoxyphenol) oxazole-4-carbohydrazide]	> 10000 nM	> 1000 nM
COc1ccc(-c2noc(C(=O)N/N=C/c3cc(OC)cc(OC)c3)n2)cc1 [Compound 75, (E)-N′-(3,5-dimethoxybenzylidene)-3-(4-methoxyphenol)-1,2,4-oxadiazole-5-carbohydrazide]	> 10000 nM	> 1000 nM
COc1ccc(-c2nc(C(=O)N/N=C/c3cc(OC)cc(OC)c3)cs2)cc1 [Compound 76, (E)-N′-(3,5-dimethoxybenzylidene)-2-(4-methoxyphenyl) thiazole-4-carbohydrazide]	> 10000 nM	> 1000 nM
